# Data published in patent US8735140B2, “Preservation and composition of bioprocess algae for production of lipids, seedstock, and feed” (Kuehnle AgroSystems, Inc., priority 2008, dated 2014).
# Experiments:
# Assay type in all cases: cell-based
# algal cells = assay: Trehalose preservation, evaporative drying and rehydration
# Description: In the experimental set, trehalose supplied from two different manufacturers (Sigma Aldrich Co.; Hayashibara Co.) is used at 0.5 M, 1.0 M, and 2.0 M each, in each of three different media (dH2O, 1M NaCl, 2.75 M NaCl algae media). In the control set, dH2O, 1 M NaCl medium, and 2.75 M NaCl medium are prepared, all lacking trehalose. The starting density of cells used for preliminary experiments is 4.59×10^5 cells/mL. The cells are spun down and re-suspended in trehalose solutions, and further equilibrate overnight at 28° C. Cells are then re-suspended in 10 mL of its corresponding medium and transferred to 25 mL canted neck tissue culture flasks (Falcon Co.). The cultures are allowed to settle and proliferate without shaking under low light (11 μE/m2/sec) for nine days. Cells are counted again to determine whether cells would multiply in each respective medium without intervening sub-culture. […] After a week of drying, all the cells are re-hydrated in 5 mL of 1M NaCl growth medium in the morning and viable cells are counted the same afternoon. […] Viability is determined by growth curves over time, by the percentage of motile cells or by the green appearance as indicative of photosynthetic activity. […]
# Chlorella KAS503 = assay: Trehalose preservation, storage by embedding in alginate mat
# Description: (§1) Flask cultures (40 ml) of cells are grown to mid-log phase with a density between 3×10^6 and 3×10^7 cells/ml, and are centrifuged. Culture medium is removed after centrifugation, resulting in more concentrated algae cells. Cells are then re-suspended in fresh medium and left overnight. Cells are centrifuged again the next day in order to remove the medium, and are then re-suspended in fresh or salt water without any nutrient. The cell density of the suspension is determined prior to storage under the various treatments. Cells in 40 ml flask cultures are grown to mid-log phase with a density of between 3×10^6 and 3×10^7 cells/ml, and are centrifuged. Culture medium is removed after centrifugation, resulting in more concentrated algae cells. Cells are then re-suspended in ideal glass solution consisting of fresh culture medium and trehalose at a concentration of 0.1M, 0.3M, and 0.5M (dihydrate trehalose 100 from Hayashibara Co. Ltd, Okayama, Japan), respectively, and left overnight with mild agitation. Cells are centrifuged again to remove the ideal glass solution the next day, and are re-suspended in fresh or salt water without any nutrient. The cell density of the resulting suspension is determined prior to storage under the various treatments. (Some cells were also treated with a 0.5M sorbitol solution). In one specific embodiment, 2% (w/v) alginate solution (Sigma-Aldrich A-2033) and 3% CaCl2 solution (Sigma-Aldrich C1016) are prepared in salt water or fresh water medium as required by specific algae species, and autoclave sterilized. Then, 2.0 ml 2% alginate solution is pipetted into each well of a BD Falcon 12-well plate. 0.2 ml algae cell suspension is then pipetted into each well and the mixture is further stirred. The alginate-cell mixture is further sprayed with 3% CaCl2 solution in a sterile pump bottle, allowing the alginate to solidify. After solidification, plates are closed and placed under low light and at ambient temperature. After stored under the above preservation conditions for 5 months, algae cells can be rejuvenated by overlaying alginate/algae mixture with 3.0 ml sterile 5.0% NaPolyphosphate (Sigma Aldrich 305553) and allowing to the mixture sit overnight. The algae/alginate/NaPolyphosphate mixture is then removed from the 12-well plate, diluted with fresh medium (3 parts fresh medium to 1 part cell suspension) and placed under light. Cell viability is determined by comparing the cell growth in control set with the experimental set. Specifically, cell counts are performed on all samples. The averaged density value (in cells per ml) for all the cultures after treatment is defined as “rejuvenation cell count.” In some samples, the percent recovery of cells immediately after storage is also determined. The formulae are illustrated as follows: Growth=(rejuvenation cell count)/(initial cell count) Cell recovery after storage=(cell density after storage)/(initial cell density), with controls set at 100% cell recovery. Viability after storage and rejuvenation in nutrient medium=(Growth of treatment)/(Growth of control)×100%, with controls set at 100% viability
# Tetraselmis KAS633 = assay: as above
# Description: as §1
# Chlorella KAS603 = assay: as above
# Description: as §1
# Synechocystis KAS635 = assay: as above; conditions: 0.3M trehalose in BG11 only
# Description: as §1
# [1] = 0.3M trehalose in F/2, 21 weeks storage and 3 weeks rejuvenation
# [2] = 0.3M trehalose in F/2, 21 weeks storage and 3 weeks rejuvenation in nutrient medium
# [3] = 0.3M trehalose in F/2, 21 weeks storage in water (no nutrients)
# [4] = 0.3M trehalose in F/2, 21 weeks storage, 0M control = 100%
# [5] = 0.3M trehalose in F/2, 21 weeks storage, density after storage/initial density
# [6] = 0.3M trehalose in F/2, 21 weeks storage and 3 weeks rejuvenation, 0M control = 100%
structure (smiles),measurement,setting,value
"OC[C@H]1O[C@H](O[C@H]2O[C@H](CO)[C@@H](O)[C@H](O)[C@H]2O)[C@H](O)[C@@H](O)[C@@H]1O [trehalose, α-D-glycosyl-α-D-glycosylpyranoside]",Cell appearance of preserved samples versus controls,"algal cells; after rehydration, light microscope",No significant differences in cell appearance
same,Cell viability after a week of drying and re-hydration,"algal cells; in 1M NaCl growth medium, compared with Sigma trehalose and other media",best preserved
same,Growth,Chlorella KAS503; [1],5.46
same,Cell number after storage & regrowth,Chlorella KAS503; [2],1.012 × 10^8 cells/ml
same,Cell number after storage,Chlorella KAS503; [3],1.860 × 10^7 cells/ml
same,"Cell recovery after storage, relative to control",Chlorella KAS503; [4],(84%)
same,Cell recovery after storage,Chlorella KAS503; [5],1.8
same,Growth,Tetraselmis KAS633; [1],4.63
same,Cell number after storage & regrowth,Tetraselmis KAS633; [2],1.375 × 10^7 cells/ml
same,% Viability,Tetraselmis KAS633; [6],(102%)
same,Cell number after storage,Tetraselmis KAS633; [3],2.97 × 10^6 cells/ml
same,"Cell recovery after storage, relative to control",Tetraselmis KAS633; [4],(142%)
same,Cell recovery after storage,Tetraselmis KAS633; [5],2.22
same,Growth,Chlorella KAS603; [1],2.72
same,Cell number after storage & regrowth,Chlorella KAS603; [2],4.480 × 10^7 cells/ml
same,% Viability,Chlorella KAS603; [6],(149%)
same,Cell number after storage,Chlorella KAS603; [3],1.646 × 10^7 cells/ml
same,"Cell recovery after storage, relative to control",Chlorella KAS603; [4],(221%)
same,Growth,Synechocystis KAS635; 21 weeks storage and 3 weeks rejuvenation,4.72
same,Cell number after storage & regrowth,Synechocystis KAS635; 21 weeks storage and 3 weeks rejuvenation in nutrient medium,4.620 × 10^7 cells/ml
same,% Viability,"Synechocystis KAS635; 21 weeks storage and 3 weeks rejuvenation, 0M control = 100%",129%
same,Cell number after storage,Synechocystis KAS635; 21 weeks storage in water (no nutrients),9.798 × 10^6 cells/ml
same,"Cell recovery after storage, relative to control","Synechocystis KAS635; 21 weeks storage, 0M control = 100%",(180%)
same,Cell recovery after storage,"Synechocystis KAS635; 21 weeks storage, density after storage/initial density",0.29
